Experimental data: ChEMBL document CHEMBL1150311, “4-Methyl-5-phenyl triazoles as selective inhibitors of 11beta-hydroxysteroid dehydrogenase type I” (Bioorg Med Chem Lett, 2008)

What was measured:
[1] = target: 11-beta-hydroxysteroid dehydrogenase 1 (Homo sapiens, UniProt P28845); experiment: Inhibition of human 11beta HSD1 by SPA assay
[2] = target: 11-beta-hydroxysteroid dehydrogenase 1 (Mus musculus, UniProt P50172); experiment: Inhibition of mouse 11beta HSD1 by SPA assay
[3] = target: T1, 11-beta-hydroxysteroid dehydrogenase type 2 (Mus musculus, UniProt P51661); experiment: Inhibition of mouse 11beta HSD2
T1 sequence (P51661 whole entry): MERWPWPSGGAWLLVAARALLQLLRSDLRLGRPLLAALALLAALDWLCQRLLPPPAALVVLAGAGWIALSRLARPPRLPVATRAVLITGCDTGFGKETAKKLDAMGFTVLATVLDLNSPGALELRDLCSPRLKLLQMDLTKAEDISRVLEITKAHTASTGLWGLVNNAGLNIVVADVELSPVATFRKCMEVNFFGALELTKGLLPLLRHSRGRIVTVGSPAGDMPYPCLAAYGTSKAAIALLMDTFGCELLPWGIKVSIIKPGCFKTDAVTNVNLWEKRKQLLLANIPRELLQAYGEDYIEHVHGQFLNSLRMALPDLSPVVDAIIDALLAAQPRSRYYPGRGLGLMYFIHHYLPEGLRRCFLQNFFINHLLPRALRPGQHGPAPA

Mus musculus [4] = experiment: Inhibition of [3H]cortisone to [3H]cortisol conversion in mouse at 10 mg/kg, po administered as single dose after 4 hrs; type: functional
Mus musculus [5] = experiment: Inhibition of [3H]cortisone to [3H]cortisol conversion in mouse at 10 mg/kg, po administered as single dose after 16 hrs; type: functional
[6] = target: T2, Nuclear receptor subfamily 1 group I member 2 (Homo sapiens, UniProt O75469); experiment: Agonist activity at human PXR; type: functional
T2 sequence (O75469 whole entry): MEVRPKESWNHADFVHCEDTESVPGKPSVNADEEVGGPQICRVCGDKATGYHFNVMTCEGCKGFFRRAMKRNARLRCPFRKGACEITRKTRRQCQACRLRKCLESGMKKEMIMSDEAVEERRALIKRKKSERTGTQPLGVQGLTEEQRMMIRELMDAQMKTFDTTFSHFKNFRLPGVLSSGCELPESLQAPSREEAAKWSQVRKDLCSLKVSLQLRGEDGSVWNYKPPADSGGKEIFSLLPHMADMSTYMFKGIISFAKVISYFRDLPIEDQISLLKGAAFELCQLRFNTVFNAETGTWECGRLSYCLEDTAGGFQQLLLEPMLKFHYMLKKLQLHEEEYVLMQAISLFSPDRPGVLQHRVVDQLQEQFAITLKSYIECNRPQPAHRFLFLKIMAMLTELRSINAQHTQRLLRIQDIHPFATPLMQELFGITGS

[7] = target: T2, Nuclear receptor subfamily 1 group I member 2; experiment: Agonist activity at human PXR at 10 uM; type: functional
[8] = target: T3, 11-beta-hydroxysteroid dehydrogenase type 2 (Homo sapiens) (UniProt P80365); conditions: at 4 µM
T3 sequence (whole entry): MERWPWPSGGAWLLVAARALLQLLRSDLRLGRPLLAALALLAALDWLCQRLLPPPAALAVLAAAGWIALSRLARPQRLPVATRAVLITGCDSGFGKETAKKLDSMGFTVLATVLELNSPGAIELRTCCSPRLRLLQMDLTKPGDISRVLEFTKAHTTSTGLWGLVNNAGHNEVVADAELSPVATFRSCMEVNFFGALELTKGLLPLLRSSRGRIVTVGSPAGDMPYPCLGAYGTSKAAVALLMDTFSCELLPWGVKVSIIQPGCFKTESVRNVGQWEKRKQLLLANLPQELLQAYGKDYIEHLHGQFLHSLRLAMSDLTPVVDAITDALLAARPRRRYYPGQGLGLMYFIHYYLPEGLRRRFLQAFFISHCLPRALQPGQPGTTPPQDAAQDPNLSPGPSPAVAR
Description: Inhibition of human 11beta HSD2 at 4 uM

[9] = target: T4, 11-beta-hydroxysteroid dehydrogenase type 2 (Homo sapiens, UniProt P80365); experiment: Inhibition of human 11beta HSD2
T4 sequence (P80365 whole entry): T3 sequence (whole entry)

Mus musculus [10] = experiment: Inhibition of [3H]cortisone to [3H]cortisol conversion in mouse at 10 mg/kg, po administered as single dose after 1 hr; type: functional

Sequence of 11-beta-hydroxysteroid dehydrogenase 1 (Homo sapiens, UniProt P28845) (P28845 whole entry): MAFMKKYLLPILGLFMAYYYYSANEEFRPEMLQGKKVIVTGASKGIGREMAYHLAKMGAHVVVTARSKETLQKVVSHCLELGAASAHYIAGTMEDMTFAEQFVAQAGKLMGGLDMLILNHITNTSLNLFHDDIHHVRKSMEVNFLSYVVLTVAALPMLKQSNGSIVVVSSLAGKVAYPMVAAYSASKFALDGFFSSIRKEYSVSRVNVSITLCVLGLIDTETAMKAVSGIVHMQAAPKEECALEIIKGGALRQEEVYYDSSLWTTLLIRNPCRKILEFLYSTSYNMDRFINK
Sequence of 11-beta-hydroxysteroid dehydrogenase 1 (Mus musculus, UniProt P50172) (P50172 whole entry): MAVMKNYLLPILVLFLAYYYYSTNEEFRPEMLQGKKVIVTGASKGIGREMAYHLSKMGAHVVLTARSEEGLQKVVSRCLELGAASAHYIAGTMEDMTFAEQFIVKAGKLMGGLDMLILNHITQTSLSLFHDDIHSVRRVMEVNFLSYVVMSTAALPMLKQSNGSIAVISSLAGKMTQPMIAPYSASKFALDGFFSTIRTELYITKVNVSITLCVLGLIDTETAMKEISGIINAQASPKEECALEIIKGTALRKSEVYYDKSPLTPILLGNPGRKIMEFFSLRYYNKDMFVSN

| Compound | IC50 [1] | IC50 [2] | IC50 [3] | inhibition in vivo at 10 mg/kg (Mus musculus [4]) | inhibition in vivo at 10 mg/kg (Mus musculus [5]) | EC50 [6] | Activity [7] | inhibition [8] | IC50 [9] | inhibition in vivo at 10 mg/kg (Mus musculus [10]) |
| --- | --- | --- | --- | --- | --- | --- | --- | --- | --- | --- |
| CCS(=O)(=O)c1ccc(-c2ccc(-c3nnc(C4(c5ccc(Cl)cc5)CCC4)n3C)c(Cl)c2)cc1 | 2.1 nM | 0.98 nM | > 4 µM | 71% | 16% | > 25 µM | -8% | 75% |  |  |
| Cn1c(-c2ccc(-c3cccnc3)cc2Cl)nnc1C1(c2ccc(Cl)cc2)CCC1 | 1 nM | 1.3 nM | > 4 µM | 100% | 26% | 3.6 µM | 35% |  |  |  |
| Cn1c(-c2ccc(-c3ccccc3)cc2Cl)nnc1C1(c2ccc(Cl)cc2)CCC1 | 1 nM | 1.4 nM |  | 99% | 85% | 1.7 µM |  |  |  |  |
| Cn1c(-c2ccc(-n3ccnc3)cc2Cl)nnc1C1(c2ccc(Cl)cc2)CCC1 | 1 nM | 2.8 nM | > 4 µM | 78% | 10% | 12 µM | 21% |  |  |  |
| Cc1cn(-c2ccc(-c3nnc(C4(c5ccc(Cl)cc5)CCC4)n3C)c(Cl)c2)c(C2CC2)n1 | 9.8 nM | 6 nM | > 4 µM | 60% | 7% | 1.3 µM | 13% |  |  |  |
| Cn1c(-c2ccc(-c3ccc(S(C)(=O)=O)cc3)cc2Cl)nnc1C1(c2ccc(Cl)cc2)CCC1 | 1.7 nM | 1.2 nM | > 4 µM | 20% | -5% | > 25 µM | 2% |  | > 4 µM |  |
| Cn1c(-c2ccc(-c3ccccn3)cc2Cl)nnc1C1(c2ccc(Cl)cc2)CCC1 | 1 nM | 1.4 nM | > 4 µM | 41% | -5% | 2.4 µM | 98% |  |  |  |
| Cn1c(-c2ccc(-c3cccc(S(C)(=O)=O)c3)cc2Cl)nnc1C1(c2ccc(Cl)cc2)CCC1 | 0.98 nM | 0.98 nM | > 4 µM | 96% | 36% | > 25 µM | -5% |  | > 4 µM |  |
| Cn1c(-c2ccccc2)nnc1C1(c2ccc(Cl)cc2)CCC1 | 1.7 nM | 52 nM | > 4 µM | 29% |  |  |  |  | > 4 µM | 47% |
| Cn1c(-c2ccc(-n3ccnc3C(F)(F)F)cc2Cl)nnc1C1(c2ccc(Cl)cc2)CCC1 | 0.98 nM | 0.96 nM | > 4 µM | 58% | 20% | 3.2 µM | 24% |  |  |  |
| Cn1c(-c2ccc(-c3ccccc3)cc2)nnc1C1(c2ccc(Cl)cc2)CCC1 | 11 nM | 4 nM | > 4 µM | 90% |  |  |  |  | > 4 µM | 86% |
| Cn1c(-c2ccc(OC(F)(F)F)cc2)nnc1C1(c2ccc(Cl)cc2)CCC1 | 13 nM | 6.9 nM | > 4 µM | 27% |  |  |  |  | > 4 µM | 64% |
| Cn1c(-c2ccc(-c3ccncc3)cc2Cl)nnc1C1(c2ccc(Cl)cc2)CCC1 | 1 nM | 2 nM | > 4 µM | 39% | 8% | 7.7 µM | 42% |  |  |  |
| Cn1c(-c2ccc(-n3ccnc3S(C)(=O)=O)cc2Cl)nnc1C1(c2ccc(Cl)cc2)CCC1 | 14 nM | 9.4 nM | > 4 µM |  |  | 7.9 µM | 23% |  |  |  |
| CCS(=O)(=O)c1ccccc1-c1ccc(-c2nnc(C3(c4ccc(Cl)cc4)CCC3)n2C)c(Cl)c1 | 0.98 nM | 1.2 nM | > 4 µM | 56% | 6% | 0.7 µM | 74% |  | > 4 µM |  |
| Cc1nccn1-c1ccc(-c2nnc(C3(c4ccc(Cl)cc4)CCC3)n2C)c(Cl)c1 | 2.6 nM | 9.6 nM | > 4 µM |  |  | > 25 µM | 22% |  |  |  |
| Cn1c(-c2ccc(O)c(F)c2)nnc1C1(c2ccc(Cl)cc2)CCC1 | 2 nM | 61 nM | > 4 µM | 6% |  |  |  |  | > 4 µM | 3% |
| Cn1c(-c2ccc(-n3ccnc3)cc2)nnc1C1(c2ccc(Cl)cc2)CCC1 | 3.5 nM | 46 nM | > 4 µM | 44% |  |  |  |  | > 4 µM | 79% |
| Cn1c(-c2ccccc2Cl)nnc1C1(c2ccc(Cl)cc2)CCC1 | 0.28 nM | 3.5 nM | > 4 µM | 73% |  |  |  |  | > 4 µM | 86% |
| Cn1c(-c2ccc(-c3nccs3)cc2)nnc1C1(c2ccc(Cl)cc2)CCC1 | 44 nM | 3.1 nM | > 4 µM | 67% |  |  |  |  | > 4 µM | 92% |
| Cn1c(-c2ccccc2O)nnc1C1(c2ccc(Cl)cc2)CCC1 | 1.8 nM | 17 nM | > 4 µM | -2% |  |  |  |  | > 4 µM | -2% |
| Cn1c(-c2ccccc2)nnc1C12CC3CC(CC(C3)C1)C2 [FIG 1] | 37 nM | 109 nM | > 4 µM | 47% |  |  |  |  | > 4 µM | 85% |
